Data set [1] has as its system BALB/c mice. Kind of data set: Primary antibody response to Ars-KLH with AICAR or 6-MPR, serum ELISA (Example 10). In kind it is in vivo. The note with it: 3 mg i.p. with Ars-KLH 100 μg; for antigen-specific IgG antibodies: vs antigen without adjuvant, day 19. As for the experimental part: BALB/c micereceived an intraperitoneal injection of Ars-KLH (100 μg), Ars-KLH+AICAR (3 mg) or Ars-KLH+6-MPR (3 mg). 19 days after Immunization, mice were bled and serum levels of antigen specific antibodies were determined by ELISA according to standard procedure using isotype-specific rat Mab.
(In general: An ELISA detects its analyte on a solid surface through an enzyme-linked reagent.)

Data set [2] concerns BALB/c mice. Description: Ars-KLH antibody response over a range of AICA-riboside doses (Example 5). The format is in vivo. The note with it: AICA-riboside 3 to 0.3 mg i.p. with Ars-KLH 100 μg; primary and secondary response. How it is done:
BALB/c mice received an intraperitoneal injection of Ars-KLH (100 μg) or Ars-KLH (100 μg)+AICA-riboside at concentrations ranging from 3 to 0.3 mg. 21 days after immunization, mice were bled and serum levels of antigen (Ars)-specific antibodies were determined by ELISA according to standard procedure using isotype-specific reagents (primary response). On day 22, all mice received a boost of Ars-KLH (50 μg) intraperitoneally. Mice were bled 14 days after the antigen boost and serum levels of Ars-specific antibodies were determined by ELISA as described previously (secondary response). The results are illustrated in FIG. 5.

The subject of data set [3] is BALB/c mice. Description: Primary and secondary antibody response to human gamma globulins (HGG), serum ELISA (Example 4). The format is in vivo. The note with it: HGG 15 μg + AICA-riboside 10 mg i.p., boost day 25. As for the experimental part:
BALB/c mice received an intraperitoneal injection of HGG (15 μg) or HGG (15 μg)+AICA-riboside (10 mg). 16 days after immunization, mice were bled and serum levels of HGG-specific antibodies were determined by ELISA as described. On day 25, the two groups of mice received respectively a boost of HGG (15 μg) and of HGG (15 μg)+AICA-riboside (10 mg) intraperitoneally. Mice were bled 10 days after the boost and serum levels of HGG-specific antibodies were determined by ELISA as described previously (secondary response). The results are illustrated in FIG. 4.

The subject of the next data set is murine lymphocytes. Kind of data set: In vitro response of murine lymphocytes, cytokine secretion. In kind it is cell-based. From the text: (§1) Although the precise mechanism(s) by which AICA-riboside augments antibody responses in vivo is presently unknown, some points are noteworthy in light of the present invention. […] A qualitative change of the humoral response is also observed, as immunoglobulins of the IgG isotype (generally detected only during the secondary response) are already detected during the primary response in animals treated with antigen/AICA-riboside formulations. […] The immuno-potentiating effect of AICA-riboside in combination with said antigen is as good when the compounds are administered mixed together (co-administered) as when administered separately or sequentially. […] The use of this agent therefore probably precludes local pain after injection.

The subject of data set [4] is BALB/c mice. Description: Size of draining lymph nodes after footpad injection (Example 8). The note with it: rear footpad injection with NP-KLH 25 μg; AICA-riboside 2.5 mg or Alum 12.5 μg; 8 days. In kind it is in vivo. How it is done: BALB/c mice were injected with NP-KLH (25 μg), NP-KLH (25 μg)+AICA-riboside (2.5 mg) or NP-KLH (25 μg)+Alum (12.5 μg) in the two rear footpads. 8 days after injection, mice were sacrificed and their posterior lymph nodes were collected and immediately analyzed for size.

Data set [5] has as its system BALB/c mice. Description: Primary, secondary and day 120 Ars-specific antibody response to Ars-KLH, serum ELISA (Examples 2 and 3). The format is in vivo. How it is done:
Three groups of BALB/c mice received an intraperitoneal injection of Ars-KLH (100 μg), Ars-KLH (100 μg)+AICA-riboside (10 mg) or Ars-KLH (100 μg)+Alum (50 μl). 21 days after immunization, mice were bled and serum levels of antigen (Ars)-specific antibodies were determined by ELISA as previously described (primary response). On day 22, all mice received a second injection (boost) of Ars-KLH (100 μg) i.p. Mice were bled 8 days after the antigen boost and serum levels of Ars-specific antibodies were determined by ELISA (secondary response). The results are illustrated in FIG. 2.
Mice immunized according to the protocol described in example 2 were bled 120 days after the first encounter with the antigen (in the presence or absence of adjuvant) and serum levels of antigen specific antibodies were determined by ELISA as described previously (secondary response, day 120).

The test system of data set [6] is BALB/c mice. Kind of data set: Local inflammatory response at injection site, GR-1 immunohistochemistry (Example 9). In kind it is in vivo. The note with it: rear footpad injection; AICA-riboside 2.5 mg or alum 12.5 μg; 8 or 24 hours. As for the experimental part: BALB/c mice were injected with saline (50 μl PBS), AICA-boside (2.5 mg) or alum (12.5 μg) in the two rear footpads. 8 or 24 hours after treatment mice were sacrificed, and thin sections of the tissues surrounding the injection site (marked by a circle) were analyzed by immunohistochemistry. Inflammatory cells (mostly granulocytes and monocytes) were identified using an antibody directed to the murine GR-1 molecule.

Another data set concerns humans. The note with it: all dose levels (10 to 100 mg/kg); cited from earlier work.
The subject of data set [7] is BALB/c mice. Description: Ars-KLH antibody response, timing of AICA-riboside injection relative to antigen (Example 6). In kind it is in vivo. The note with it: AICA-riboside 10 mg i.p. at d-1, d0 or d+1, separate site from Ars-KLH 100 μg. As for the experimental part:
BALB/c mice received an intraperitoneal injection of AICA-riboside (10 mg) one day before (d-1), the same day (d0) or the day after (d+1) the intraperitoneal injection (in a separate site) of Ars-KLH (100 μg). A fourth group (n.t.) received an intraperitoneal injection of phosphate buffer solution the day of the antigen administration. 20 days after immunization, mice were bled and serum levels of Ars-specific antibodies were determined by ELISA according to standard procedures using isotype-specific reagents (primary response). On day 21, all mice received a boost of Ars-KLH (50 μg) intraperitoneally. Mice were bled 14 days after the antigen boost and serum levels of Ars-specific antibodies were determined by ELISA as described previously (secondary response).

The test system of data set [8] is BALB/c mice. Description: NP-KLH antibody response in anti-CD4 treated mice (Example 7). The note with it: anti-CD4 (GK1.5) treated mice; NP-KLH 100 μg + AICA-riboside 10 mg i.p.; day 10. The format is in vivo. As for the experimental part: BALB/c mice, were treated or not with anti-CD4 antibodies (two intraperitoneal injections of 200 μl of the depleting rat anti-mouse anti-CD4 antibody, clone GK1.5, on days 0 and 5). On day 2 mice were injected intraperitoneally with NP-KLH (100 μg) or NP-KLH (100 μg)+AICA-riboside (10 mg). 10 days after immunization, mice were bled and serum levels of NP-specific antibodies were determined by ELISA according to standard procedures using isotype specific reagents.

For data set [9], the system named is BALB/c mice. Kind of data set: Antigen (NP)-specific antibody response to NP-KLH, serum ELISA (Example 1). The format is in vivo. As for the experimental part:
BALB/c mice were injected intraperitoneally with 200 μl of saline, aqueous solution (phosphate buffer solution), or with 200 μl of phosphate buffer solution containing AICA-riboside (10 mg), NP-KLH (100 μg) or NP-KLH (100 μg)+AICA-riboside (10 mg). Height days after immunization, mice were bled and serum levels of antigen (NP)-specific antibodies were determined by ELISA according to standard procedure using isotype-specific reagents.

For a further data set, the system named is mice. Description: Serum antibody response in mice to protein antigens mixed with AICA-riboside (general studies). The format is in vivo.
Excerpt: as §1

In data set [10] the test system is BALB/c mice. Kind of data set: Primary and secondary antibody response to Ars-KLH with oligomycin, serum ELISA (Example 11). The format is in vivo. The note with it: oligomycin 10 μg i.p. with Ars-KLH 50 μg, vs antigen alone; primary (day 21) and secondary (14 days after boost). As for the experimental part:
BALB/C mice were injected intraperitoneally with Ars-KLH (50 μg) mixed with saline, AICA-riboside (3 mg) or oligomycin (10 μg). 21 days after immunization, mice were bled and serum levels of Ars-specific antibodies (primary response) were determined by ELISA according to standard procedure using isotype-specific rat mAb. […] On day 22, all mice received a second injection of Ars-KLH (50 μg) intrapertioneally. Mice were bled 14 days after the antigen boost and serum levels of Ars-KLH-specific antibodies (secondary response) were determined by ELISA.

“Also recorded” adds a separate entry of the source.

Turning to `OC[C@H]1O[C@@H](n2cnc3c(S)ncnc32)[C@H](O)[C@@H]1O` [6-MPR, 6-mercaptopurine riboside], the “antigen-specific IgG antibodies” value with BALB/c mice [1] is “increased levels of antigen-specific IgG antibodies”.
`NC(=O)c1ncn([C@@H]2O[C@H](CO)[C@@H](O)[C@H]2O)c1N` [AICA-riboside, 5-aminoimidazole-4-carboxamide riboside]: the “adjuvant activity over dose range” value in the data set on BALB/c mice [2] is recorded as “can act as an adjuvant over a wide range of doses”. Besides, the “antibody response to protein antigen HGG” value in the data set on BALB/c mice [3] is “augments the antibody response”. Besides, in the data set with murine lymphocytes (in response to bacterial mitogens, lectins or protein antigens), the secretion of cytokines entry is reported as “did not affect the secretion of cytokines”. Besides, the “enhancing effect on in vitro response of murine lymphocytes” value in the data set with murine lymphocytes (in vitro) is listed as “no enhancing effect”. Besides, the “swelling of the lymph node draining the injection site” value with BALB/c mice [4] is reported as “does not induce the swelling”. Besides, in the data set with BALB/c mice [5] (10 mg i.p. with Ars-KLH 100 μg, vs antigen without adjuvant), the “antigen-specific IgM response” value was “unaffected”. For the same compound, the “antigen-specific IgG antibodies” value is “increased levels of antigen-specific IgG antibodies” in the data set with BALB/c mice [5] (10 mg i.p. with Ars-KLH 100 μg, vs antigen without adjuvant, primary (day 21) and secondary (8 days after boost) response); “increased levels of antigen-specific IgG antibodies” in the data set on BALB/c mice [1]. Also, in the data set with BALB/c mice [5] (AICA-riboside 10 mg vs Alum 50 μl, each with Ars-KLH 100 μg i.p.), the “immuno-stimulatory properties compared with Alum” value is given as “comparable to the Alum adjuvant”. For the same compound, the “antigen-specific response, day 120” value in the data set with BALB/c mice [5] (bled 120 days after first encounter with antigen, vs antigen alone) is listed as “long-lasting increase in antigen-specific response”. Further, in the data set with BALB/c mice [6], the “GR-1-expressing inflammatory cell recruitment / cellular infiltrates” value is on record as “minimal GR-1-expressing cells recruitment to sites distant from the injection site”. Also, in the data set on BALB/c mice [6], the “tissue necrosis at injection site” value is reported as “no tissue necrosis or abnormality”. The “Ars specific antibodies concentrations” value in the data set on BALB/c mice [1] (serum 19 days after immunization, Ars-KLH+saline control 0.04) is 1.607 ± 0.521 µg/mL. The tolerability in humans entry in the data set on humans was “well tolerated”. The “adjuvant effect depending on time of injection” value in the data set with BALB/c mice [7] is listed as “only manifest when AICA-riboside is injected at the same moment with the antigen”. The “antigen-specific antibody responses in the absence of CD4-expressing T cells” value in the data set on BALB/c mice [8] is reported as “does not augment the antigen-specific antibody responses”. Further, the “antigen (NP)-specific antibody response” value in the data set on BALB/c mice [9] (AICA-riboside 10 mg co-administered i.p. with NP-KLH 100 μg, vs antigen alone, bled Height days after immunization) was “increased antigen-specific antibody response”; with BALB/c mice [9] (AICA-riboside 10 mg i.p. alone, without antigen), “does not lead to an increased, antigen-specific antibody response”. Further, the “local inflammatory response following injection” value in the data set on mice (injection into mice) was “no local inflammatory response was observed”. For the same compound, the “boost of serum antibody response above unadjuvanted antigens” value in the data set with mice (mixed in aqueous solutions with protein antigens, mice) is on record as “five to ten folds”.
For `CC[C@H]1/C=C/C=C/C[C@@H](C)[C@H](O)[C@@](C)(O)C(=O)[C@@H](C)[C@H](O)[C@@H](C)C(=O)[C@@H](C)[C@H](O)[C@@H](C)/C=C/C(=O)O[C@@H]2[C@H](C)[C@H](CC1)O[C@]1(CC[C@H](C)[C@H](C[C@@H](C)O)O1)[C@H]2C` [oligomycin], in the data set with BALB/c mice [10], the “antigen-specific IgG antibodies” value is “increased levels of antigen-specific IgG antibodies; also recorded: increases antibody responses”.

(Values after patent US20050002943A1, “Amp-kinase agonists or adenosine pro-drugs as immuno-stimulating agents” (priority 2001, published 2005).)
